In patent publication US10676534B2, “Vaults engineered for hydrophobic drug delivery” (priority 2013, dated 2020):
Converted amounts (≈) assume the structure as drawn.

Columns and labels:
[1] = cited from earlier work
[2] = tested on: J-Lat 10.6 cells; assay: In vitro latent HIV activation, J-Lat 10.6 cell line assay (GFP expression); type: cell-based; conditions: 50 nM, without vaults, positive control, 48 hrs, N=3, ±1 SD
Procedure: (§1) FIGS. 10A, 10B, and 10C: FIG. 10A) In vitro latent HIV activation using bryostatin 1 sequestered in AH1 vault complexes compared to empty vault complexes on J-Lat 10.6 cells for 48 hrs. In these assays 50 nM of byrostatin 1 (without vaults) was used as a positive control and induced GFP expression in 30.6% (±0.6%) of cells. Error bars indicate ±1 SD (N=3). NS not significant, **p<0.0001 empty vault vs. Vault+Byrostatin 1 (2-sided t-test). FIG. 10B) In vitro stimulation of CD69 HIV provirus latency activation biomarker using bryostatin 1 sequestered in AH1 vault complexes compared to empty vault complexes on primary human PBMCs for 24 hrs. Positive control stimulations with 50 nM of byrostatin 1 compound (without vaults) induced CD69 expression in 69.4% (±31.3%) of cells. Error bars indicate ±1 SD (N=4 different cell donors). […]
(§2) Bryostatin 1 is an effective HIV therapeutic as it activates latent HIV provirus that remains within cellular reservoirs. […] The bryostatin 1 sequestered within AH1 vault complex (bryostatin/AH1) was assessed in vitro and in vivo for the ability to activate latent HIV provirus. […] When tested for activity in this way, bryostatin/AH1 activated CD69 expression in primary human PBMC obtained from 4 different donors in a dose dependent manner with stimulation occurring at concentrations as low as 0.1 ng/μL AH1 vault complex as analyzed by flow cytometry (FIG. 10B).

[3] = tested on: primary human PBMCs; assay: In vitro stimulation of CD69 HIV provirus latency activation biomarker, flow cytometry; type: cell-based; conditions: 50 nM, without vaults, positive control, 24 hrs, N=4 donors, ±1 SD
Procedure: as §1, §2

For `NC(=O)c1[nH]c2ccc(Cl)cc2c1S(=O)(=O)c1ccccc1` [CSIS, 5-chloro-3-phenylsulfonylindole-2-carboxamide], the solubility in water [1] is listed as 1.4 µg/mL (≈ 4.18 µM).
In the case of `CC1=C(/C=C/C(C)=C/C=C/C(C)=C/C(=O)O)C(C)(C)CCC1` [ATRA, All-trans Retinoic Acid], the “aqueous solubility (in words)” value [1] is given as “aqueous insoluble”.
For `COc1cccc2c1C(=O)c1c(O)c3c(c(O)c1C2=O)C[C@@](O)(C(=O)CO)C[C@@H]3O[C@H]1C[C@H](N)[C@H](O)[C@H](C)O1` [Doxorubicin], the solubility in water [1] is given as “over 50 mg/mL”.
In the case of `CCC/C=C/C=C/C(=O)O[C@H]1/C(=C/C(=O)OC)C[C@H]2C[C@H]([C@@H](C)O)OC(=O)C[C@H](O)C[C@@H]3C[C@H](OC(C)=O)C(C)(C)[C@](O)(C[C@@H]4C/C(=C/C(=O)OC)C[C@H](/C=C/C(C)(C)[C@]1(O)O2)O4)O3` [Bryostatin 1], the “cells with induced GFP expression” value [2] is reported as 30.6% and the “cells with induced CD69 expression” value [3] is reported as 69.4%.
